SMILES strings stand for the structures. Read-outs that look alike come from different tables or passages of the source.

The subject of data set [1] is DA release in rat synaptosomes. The data set can be described thus: Dopamine release assay in rat striatal synaptosomes. The settings on record: % of maximal release with 50 μM MDMA, n=2. It is filed as biochemical. The method, then: Methods-Evaluation of Monoamine Release: The potency of therapeutic compounds for stimulating DA release was measured by an endpoint release filtration assay in a 96-well format using rat synaptosomes, essentially as described by Sandtner et al. (Mol Pharmacol., 2016; 89(1):165-75.) and Baumann et al. (Neuropsychopharmacol, 2013; 38:552-562.) with some variations. One male rat was euthanized, and striatum/cortex regions were dissected over ice. The striatum portions were weighed and put in a glass tube containing ice-cold 0.32 M sucrose (dilution 1:24 w/v) for homogenization, while the frontal cortex tissue was diluted in ice-cold 0.32 M sucrose, 1:20 w/v. Tissues were homogenized and centrifuged for 10 mins at 1000×g. The two supernatants from striatum and cortex (crude synaptosomes) were retained on ice until use.
Test compounds were then serially diluted 1:4 in neat DMSO as concentration-response curves (CRC) of 11 points. To each well of a 2-mL 96 deep-well plate (Whatman UNIPLATE 96 well) were added: 2 μL of a concentration-response curve (CRC) of test compounds or 2 μL of DMSO (no-release condition) or 2 μL of MDMA 10 mM solution (final 50 μM, for maximal release), followed by 200 μL/well of complete Krebs-phosphate buffer (126 mM NaCl, 2.4 mM KCl, 0.83 mM CaCl2), 0.8 mM MgCl2, 0.5 mM KH2PO4, 0.5 mM Na2SO4, 11.1 mM glucose, 0.05 mM pargyline, 1 mg/mL ascorbic acid, freshly added, pH 7.4), containing 1 μM reserpine to block vesicular uptake of substrate. Desipramine (100 nM) and citalopram (100 nM) were also added to the release assay buffer in order to inhibit NET and SERT uptake, respectively. The final compound dilution, then, was 1:200 in 0.5% DMSO.
3H-Dopamine was added to the tube containing the crude striatal synaptosomes preparation, diluted 1:20 (v/v) in complete Krebs-phosphate buffer, and was incubated at RT and gently mixed for 60 minutes. Then, 200 μL/well of 3H-DA loaded synaptosomes were dispensed to the compound plate (final 400 μL/well), and the release reaction proceeded for an additional 15 minutes at RT. The release was terminated by vacuum filtration and washing three times with 1 mL of saline solution (NaCl 0.9%) at RT. The retained radioactivity was counted in a scintillation counter after the addition of 50 μL/well Microscint-20.
The raw data (cpm) from residual radioactivity onto the filter were elaborated for the determination of pEC50/EC50 values. Specifically, the compound effect was expressed as the percent of maximal release obtained with 50 μM MDMA (100% release) in comparison to vehicle (0.5% DMSO, 0% release). Both MDMA and D-amphetamine in CRC were used as internal controls in each release experiment. In each plate, for both 0% and 100% of release, the signal window was monitored and Z′ calculations were determined using the raw data of four replicates. 5-HT release was calculated in an identical fashion, except that 5 nM 3H-serotonin was added to crude cortex synaptosomes preparation diluted 1:13 (v/v) in complete Krebs-phosphate buffer containing 1 μM Reserpine, 100 nM GBR12909 and 100 nM nomifensine to block vesicular, DAT, and NET uptake, respectively. Synaptosomes were then loaded with 3H-5HT for 60 minutes at RT. After dispensing loaded synaptosomes onto a compound plate (200 μL/well), the release reaction proceeded for an additional 15 minutes. Stop by filtration, counting, and data elaboration were performed as described for DA release. Compounds were tested in duplicate (n=2).

Data set [2] deals with T1, CYP2D6 (Homo sapiens, UniProt P10635).
T1 construct: host or cells: recombinant microsomes
T1 sequence (P10635 whole entry): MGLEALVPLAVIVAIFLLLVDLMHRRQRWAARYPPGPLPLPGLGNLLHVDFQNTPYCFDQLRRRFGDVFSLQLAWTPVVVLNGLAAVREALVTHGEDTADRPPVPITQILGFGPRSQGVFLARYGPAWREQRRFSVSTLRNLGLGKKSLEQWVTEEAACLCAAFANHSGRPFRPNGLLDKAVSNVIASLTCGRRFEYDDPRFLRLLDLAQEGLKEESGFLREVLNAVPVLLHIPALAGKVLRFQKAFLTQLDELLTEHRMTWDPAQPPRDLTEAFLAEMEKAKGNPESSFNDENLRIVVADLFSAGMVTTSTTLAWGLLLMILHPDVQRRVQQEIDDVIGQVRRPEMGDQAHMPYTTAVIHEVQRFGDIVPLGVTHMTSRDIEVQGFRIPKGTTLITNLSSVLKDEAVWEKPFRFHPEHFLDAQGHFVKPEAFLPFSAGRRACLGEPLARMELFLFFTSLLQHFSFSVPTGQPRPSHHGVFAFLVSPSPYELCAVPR
Nature of the data set: CYP450 inhibition, fluorescent probe substrate. It counts as in vitro ADME. As to the method:
Methods: Recombinant human CYP450 isoenzymes were used to metabolize pro-fluorescent probe substrates to fluorescent products. IC50 values determined from the effect of test compounds on the metabolism of these probe substrates were then used to determine inhibitory potency against CYP450 isoforms. The chemical reagents included:
The test system was based on a three-step procedure with a “mix and read” format, where reaction and reading were performed at 37° C. The assays described herein measure in vitro inhibitory effects (pIC50) of compounds on the human P450 isoforms (1A2, 2B6, 2C8, 2C9, 2C19, 2D6, 3A4) expressed in recombinant microsomes. Pro-fluorescent probe substrates were metabolized to fluorescent products by the enzymes. Fluorescence was measured in kinetic mode (1 read/minutes for 10 minutes), and the fluorescence rate was calculated.
Inhibition of the fluorescent signal resulting from P450 activation indicated inhibitory activity and facilitated calculation of the compound pIC50. A quality check was included in each compound plate, wherein the signal window was monitored by performing Z′ calculations ([…] ) and the antagonist potency of internal standards was within the pIC50±2SD range. Concentration response curves (CRCs) of compounds were run on two different test occasions (n 2) by preparing serial dilutions from the same compound stock solution.
To prepare the compound plate, test compounds serial dilutions 1 to 3 were performed from a 10 mM stock solution in DMSO by Biomek FX to generate 10 point CRC with the highest concentrations in columns 3 and 13.
100% DMSO was placed in columns 1 and 2 and used for assay low controls. CYP inhibitor (10 mM miconazole solution in DMSO) was placed in columns 23 and 24 and served as an assay high controls. 1 μL copy plates were then stamped into V-bottom drug plates at a concentration that is 200 fold the final assay concentration. The copy plates were diluted prior to the experiment with assay buffer to reach 4 times the final assay concentration (2% w/v DMSO).
A reference compound (e.g., miconazole) was included in each compound plate in row A, column 3 and 13. The reference compound was diluted and stamped together with test compounds. The final concentrations of the 10 point CRCs of test compounds in the assay plate were 5.00E-05; 1.67E-05; 5.56E-06; 1.85E-06; 6.17E-07; 2.06E-07; 6.86E-08; 2.29E-08; 7.62E-09 and 2.54E-09, respectively. All solutions were prepared immediately before the assay.
Microsomes were added to the buffer prior to the substrate addition. The solution was carefully mixed without vortexing. 30 μL/well of the mixture was then transferred to the assay plate (384-well black plate) using a 16-channel pipette. For each P450 isoformn, a separate plate was prepared and labeled with a barcode. For fluorescence measurement, 10 μL/well of the test compounds were transferred from the compound plate to the assay plate using Biomek FX and the appropriate protocol. The assay plate was then incubated at 37° C. for 10 minutes on a shaker to allow for the interaction between compounds and enzymes.
10 μL/well of the cofactor was then added to the assay plate using the Multidrop before placing the assay plate in the plate reader EnVision to measure fluorescence. The overall final DMSO concentration for the assay was 0.5%. Plates were read every minute for 10 minutes, according to a P450 isoform specific protocol, as shown below.
Regarding data analysis, inhibition is expressed as a percentage. […] Curve fitting and pIC50 estimations are carried out using a four-parameter logistic model in Morphit.

Data set [3] concerns the target T2, human DAT (Homo sapiens, UniProt Q01959).
T2 construct: expressed in transfected cells; host or cells: CHO (hDAT-CHO)
Nature of the data set: DAT uptake SPA in hDAT-CHO cells. It counts as cell-based.
Description: Methods-Evaluation of Monoamine Uptake/Transporter Inhibition: Inhibitory activity on DAT function was measured using an uptake assay in a recombinant CHO cell line stably expressing human DAT (hDAT-CHO). Potency was measured in terms of pIC50 by testing for inhibition of [3H]-dopamine uptake in hDAT-CHO cells in a multiwell format SPA.
Briefly, on experiment days, hDAT-CHO cells were detached using Versene and added at a density of approximately 300,000 cells/mL to the SPA Mixture, which contains the following components in Assay Buffer (20 mM HEPES, 145 mM NaCl, 5 mM KCl, 2 mM CaCl2), 1 mM MgCl2, 5.5 mM glucose, 0.01% Pluronic F127, pH 7.3): 0.75 mg/mL SPA Imaging beads (RPNQ0001, PerkinElmer), 10 μM pargyline and 80 nM of [3H]-dopamine (NET673, PerkinEImer). The SPA Mixture was added 20 μL/well to 384 well plates containing 0.1 μL/well of test compound in neat DMSO (11 points of 1:5 serial dilution, 0.5% DMSO final) or 0.1 μL of DMSO (total uptake) or 0.1 μL of the standard inhibitor indatraline (at 1 μM final concentration, as nonspecific uptake). Plates were sealed with a Top-seal A and read using a Microbeta counter (PerkinElmer) after 45 minutes of incubation at room temperature. […] The SPA Mixture was added 20 μL/well to 384 well plates containing 0.1 μL/well of test compound in neat DMSO (11 points of 1:5 serial dilution, 0.5% DMSO final), 0.1 μL of DMSO (total uptake), or 0.1 μL of the standard inhibitor indatraline (1 μM, nonspecific uptake). Plates were sealed with a Top-seal A and read using a Microbeta counter (PerkinElmer) after 120 minutes of incubation at room temperature.
For both tests, the raw experimental data (cpm) were elaborated for the determination of pIC50/IC50 values as % inhibition of specific uptake.

[4] abbreviates: recombinant human isoenzyme, n=2, read-out: Inhibition of CYP2D6, IC50.
Setting [5] is: [3H]-dopamine uptake, hDAT-CHO cells, read-out: DAT Uptake SPA (pIC50) (converted).

T2 sequence (Q01959 whole entry): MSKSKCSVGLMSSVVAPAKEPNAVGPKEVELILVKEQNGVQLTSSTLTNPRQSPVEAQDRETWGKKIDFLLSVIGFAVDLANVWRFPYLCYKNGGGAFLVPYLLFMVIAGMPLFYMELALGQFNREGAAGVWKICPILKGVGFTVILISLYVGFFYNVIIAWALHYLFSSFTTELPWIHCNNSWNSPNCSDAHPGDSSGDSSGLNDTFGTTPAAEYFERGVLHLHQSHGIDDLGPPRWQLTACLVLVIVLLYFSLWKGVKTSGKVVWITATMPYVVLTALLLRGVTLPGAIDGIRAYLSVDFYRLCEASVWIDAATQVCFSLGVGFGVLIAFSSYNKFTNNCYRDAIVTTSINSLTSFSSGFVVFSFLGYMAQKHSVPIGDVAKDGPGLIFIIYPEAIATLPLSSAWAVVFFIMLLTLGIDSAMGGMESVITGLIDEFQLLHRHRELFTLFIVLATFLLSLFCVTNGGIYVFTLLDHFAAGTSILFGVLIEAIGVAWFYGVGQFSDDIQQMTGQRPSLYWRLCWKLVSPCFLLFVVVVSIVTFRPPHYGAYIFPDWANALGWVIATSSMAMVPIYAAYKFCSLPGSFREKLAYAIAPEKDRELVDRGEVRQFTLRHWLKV

Turning to `COc1ccc2c(c1)CC(N)C2` (stereo not drawn) [MEAI, 5-methoxy-2-aminoindane], the “DA Release (pEC50)” value in data set [1] is listed as 5.4. The IC50 in data set [2] is 37 µM; in data set [3], 50.1 µM.

As for `COC(=O)COc1ccc2c(c1)CC(N)C2` (stereo not drawn) [CMP-402], the “DA Release (pEC50)” value in data set [1] is listed as less than 4.0. Moreover, the IC50 was more than 50 µM in data set [2] (setting [4]) and 100 µM in data set [3] (setting [5]).

Turning to `CNC(C)Cc1ccc2c(c1)OCO2` (stereo not drawn) [MDMA], the “DA Release (pEC50)” value in data set [1] was 6.6. The IC50 in data set [2] (setting [4]) stood at 1.6 µM. For the same compound, the “DAT Uptake SPA (pIC50)” value in data set [3] ([3H]-dopamine uptake, hDAT-CHO cells) was 5.7.

In the case of `COC(=O)c1cc2c(cc1OC)CC(N)C2` (stereo not drawn) [CMP-401], the “DA Release (pEC50)” value in data set [1] is recorded as less than 4.0. The IC50 is more than 50 µM in data set [2] (setting [4]) and 100 µM in data set [3] (setting [5]).

In the case of `COc1cc2c(cc1C)CC(N)C2` (stereo not drawn) [MMAI, 5-methoxy-6-methyl-2-aminoindane], the “DA Release (pEC50)” value in data set [1] is reported as 4.6. The IC50 in data set [2] is 33.6 µM; in data set [3] it was 50.1 µM.

For the compound `COC(=O)c1ccc2c(c1)CC(N)C2` (stereo not drawn) [CMP-405, 2-aminoindane-5-methylcarboxylate], the “DA Release (pEC50)” value in data set [1] is recorded as 5.6. Besides, the IC50 was 23 µM in data set [2] (setting [4]) and 20 µM in data set [3] (setting [5]).
